This note sets out measurements from patent US6875760B2 (Novo Nordisk A/S, priority 1999, dated 2005).

pIC50: −log10 of the molar value.

In the test the target is T1, human glucagon receptor (Homo sapiens, UniProt P47871).
T1 construct: expressed in transfected cells; host or cells: BHK (baby hamster kidney) cells
T1 sequence (P47871 26-477): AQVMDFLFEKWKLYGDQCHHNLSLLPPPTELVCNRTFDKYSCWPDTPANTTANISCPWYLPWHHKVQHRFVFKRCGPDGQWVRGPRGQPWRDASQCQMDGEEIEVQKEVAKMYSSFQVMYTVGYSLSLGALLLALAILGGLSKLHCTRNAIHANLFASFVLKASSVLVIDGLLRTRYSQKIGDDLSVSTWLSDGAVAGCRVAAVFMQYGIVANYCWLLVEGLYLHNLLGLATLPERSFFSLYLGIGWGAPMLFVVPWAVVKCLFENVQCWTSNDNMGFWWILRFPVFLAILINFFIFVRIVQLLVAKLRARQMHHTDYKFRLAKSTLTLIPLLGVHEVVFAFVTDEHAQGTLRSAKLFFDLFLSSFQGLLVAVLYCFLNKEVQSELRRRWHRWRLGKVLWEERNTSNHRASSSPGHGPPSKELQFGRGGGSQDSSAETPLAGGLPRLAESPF
Description: Glucagon Binding Assay (III). The settings on record: BHK cell membranes, WGA SPA beads, 125I-glucagon; read-out: Glu Bd Assay (III) IC50. Summed up:
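Membranes from BHK cells transfected with the human receptor, prepared at 4 °C, were used in a WGA-bead scintillation proximity binding format. Plates were shaken for 4 hours, left to settle 8–48 hours and then counted. Non-specific binding was defined with 500 nM glucagon.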
In the case of `CCSc1cccc(NC(=O)N(Cc2ccc(C(=O)Nc3nn[nH]n3)cc2)c2ccc(C3CCCCC3)cc2)c1` [Example 289, 4-[1-(4-Cyclohexylphenyl)-3-(3-ethylsulfanylphenyl)ureidomethyl]-N-(2H-tetrazol-5-yl)benzamide], the negative logarithm of the IC50 (pIC50) (commonly the negative decadic logarithm of the IC50, by convention in mol/L) is 7.57.

On to `CC(C)(C)c1ccc(N(Cc2ccc(C(=O)Nc3nn[nH]n3)cc2)C(=O)Nc2ccc3c(c2)C(=O)N(CC2CC2)C3=O)cc1` [Example 640, 4-[1-(4-tert-Butylphenyl)-3-(N′-[cyclopropylmethyl]phthalimid-4-yl)ureidomethyl]-N-(2H-tetrazol-5-yl)benzamide], for which the negative-log IC50 (pIC50) was 8.22.

As to `CNC(=O)c1cccc(NC(=O)N(Cc2ccc(C(=O)Nc3nn[nH]n3)cc2)c2ccc(C(C)(C)C)cc2)c1` [Example 458, N-Methyl-3-{3-(4-tert-butylphenyl)-3-[4-(2H-tetrazol-5-ylcarbamoyl)benzyl]ureido}benzamide], the pIC50 was 5.74.

In the case of `CC(C)(C)C1CCC(N(Cc2ccc(C(=O)NCCC(=O)O)cc2)C(=O)Nc2ccc(Cl)c(Cl)c2)CC1` (stereo not shown) [Example 16, 3-{4-[1-(4-tert-Butylcyclohexyl)-3-(3,4-dichlorophenyl)ureidomethyl]benzoylamino}propionic acid], the negative-log IC50 (pIC50) was 7.41.

With `CC(C)N1C(=O)c2ccc(NC(=O)N(Cc3ccc(C(=O)NCCC(=O)O)cc3)C3CCC(C(C)(C)C)CC3)cc2C1=O` (stereo not shown) [Example 632, 3-{4-[1-(4-tert-Butylcyclohexyl)-3-(N′-isopropylphthalimid-4-yl)ureidomethyl]benzoylamino}propionic acid], the pIC50 is 7.04.

On to `CC(C)(C)[C@H]1CC[C@H](N(Cc2ccc(C(=O)NCCC(=O)O)cc2)C(=O)Nc2cc(Cl)c(Cl)c(Cl)c2)CC1` [Example 238, 3-{4-[1-(trans-4-tert-Butylcyclohexyl)-3-(3,4,5-trichlorophenyl)ureidomethyl]benzoylamino}propionic acid], for which the pIC50 was 6.99.

As to `CC(C)N1C(=O)c2ccc(NC(=O)N(Cc3ccc(C(=O)Nc4nn[nH]n4)cc3)C3CCC(C(C)(C)C)CC3)cc2C1=O` (stereo not shown) [Example 629, 4-[1-(4-tert-Butylcyclohexyl)-3-(N′-isopropylphthalimid-5-yl)ureidomethyl]-N-(2H-tetrazol-5-yl)benzamide], the pIC50 is 7.35.

Consider `CSc1ccc(NC(=O)N(Cc2ccc(C(=O)NCCC(=O)O)cc2)C2CCC(C(C)(C)C)CC2)cc1` (stereo not shown) [Example 30, 3-{4-[1-(4-tert-Butylcyclohexyl)-3-(4-methylsulfanylphenyl)ureidomethyl]benzoyl}aminopropionic acid], for which the pIC50 was 6.86.

Regarding `CC(C)(C)C1CCC(N(Cc2ccc(C(=O)NCCC(=O)O)cc2)C(=O)Oc2cccc(OC(F)(F)F)c2)CC1` (stereo not shown) [Example 408, 3-(4-{[(4-tert-Butylcyclohexyl)-(3-trifluoromethoxyphenoxycarbonyl)amino]methyl}benzoylamino)propionic acid], the pIC50 was 6.24.

For the compound `CC(C)(C)C1CCC(N(Cc2ccc(C(=O)NCCC(=O)O)cc2)C(=O)Nc2ccc3c(c2)C(=O)N(CC2CC2)C3=O)CC1` (stereo not shown) [Example 641, 3-{4-[1-(4-tert-Butylcyclohexyl)-3-(N′-[cyclopropylmethyl]phthalimid-4-yl)ureidomethyl]benzoylamino}propionic acid], the pIC50 is 7.68.

`CC(Oc1cccc(Cl)c1)C(=O)N(Cc1ccc(C(=O)Nc2nn[nH]n2)cc1)c1ccc(C2CCCCC2)cc1` (stereo not shown) [Example 498, 4-{[[2-(3-Chlorophenoxy)propionyl]-(4-cyclohexylphenyl)amino]methyl}-N-(2H-tetrazol-5-yl)benzamide]: the pIC50 is 6.21.

Turning to `COc1ccc(NC(=O)N(Cc2ccc(C(=O)Nc3nn[nH]n3)cc2)c2ccc(C3CCCCC3)cc2)cc1S(C)(=O)=O` [Example 340, 4-[1-(4-Cyclohexylphenyl)-3-(3-methylsulfonyl-4-methoxyphenyl)ureidomethyl]-N-(2H-tetrazol-5-yl)benzamide], the pIC50 is 6.75.

In the case of `O=C(Nc1nn[nH]n1)c1ccc(CN(C(=O)Nc2cccc(SCC3CC3)c2)c2ccc(C3CCCCC3)cc2)cc1` [Example 299, 4-[1-(4-Cyclohexylphenyl)-3-(3-cyclopropylmethylsulfanylphenyl)ureidomethyl]-N-(2H-tetrazol-5-yl)benzamide], the pIC50 is 6.77.

With `O=C(O)CCNC(=O)c1ccc(CN(C(=O)Nc2ccc3c(c2)C(=O)N(CC2CC2)C3=O)c2ccc(C3CCCCC3)cc2)cc1` [Example 642, 3-{4-[3-(N′-[Cyclopropylmethyl]phthalimid-4-yl)-1-(4-cyclohexylphenyl)ureidomethyl]benzoylamino}propionic acid], the pIC50 was 8.15.

As for `CCCCc1ccc(N(Cc2ccc(C(=O)NCCC(=O)O)cc2)C(=O)Nc2ccc(OC(F)(F)F)cc2)cc1` [Example 372, 3-{4-[1-(4-Butylphenyl)-3-(4-trifluoromethoxyphenyl)ureidomethyl]benzoylamino}propionic acid], the pIC50 was 7.05.

Turning to `CC(C)(C)C1CCC(N(Cc2ccc(C(=O)NCCC(=O)O)cc2)NC(=O)c2ccc(OC(F)(F)F)cc2)CC1` (stereo not shown) [Example 424, 3-{4-[N-(4-tert-Butylcyclohexyl)-N′-(4-trifluoromethoxybenzoyl)hydrazinomethyl]benzoylamino}propionic acid], the pIC50 is 7.21.

For `O=C(Nc1nn[nH]n1)c1ccc(CN(C(=O)Nc2cccc([N+](=O)[O-])c2)c2ccc(OC(F)(F)F)cc2)cc1` [Example 285], the negative logarithm of the IC50 (pIC50) is 6.82.

For `CC(C)(C)C1CCC(N(Cc2ccc(C(=O)NCCC(=O)O)cc2)C(=O)Oc2ccc(-c3ccccc3)cc2)CC1` (stereo not shown) [Example 398, 3-(4-{[(Biphenyl-4-yloxycarbonyl)-(4-tert-butylcyclohexyl)amino]methyl}benzoylamino)propionic acid], the pIC50 is 6.87.

Regarding `O=C(O)CCNC(=O)c1ccc(CN(C(=O)Nc2ccc(OC(F)(F)F)cc2)C(=O)Nc2ccc(OC(F)(F)F)cc2)cc1` [Example 383, 3-{4-[1,5-Bis(4-trifluoromethoxyphenyl)-3-biuretmethyl]benzoylamino}propionic acid], the pIC50 is 6.03.

Regarding `CCCCC(CC)CN(Cc1ccc(C(=O)NCCC(=O)O)cc1)C(=O)Nc1cccc(C(F)(F)F)c1` (stereo not shown) [Example 21, 3-{4-[1-(2-Ethylhexyl)-3-(3-trifluoromethylphenyl)ureidomethyl]benzoylamino}propionic acid], the pIC50 is 5.82.

Consider `CC(NC(=O)N(Cc1ccc(C(=O)Nc2nn[nH]n2)cc1)c1ccc(C2CCCCC2)cc1)c1ccc(Cl)cc1` (single isomer, unassigned) [Example 338, 4-[3-[1-(4-Chlorophenyl)ethyl]-1-(4-cyclohexylphenyl)ureidomethyl]-N-(2H-tetrazol-5-yl)benzamide], for which the negative logarithm of the IC50 (pIC50) was 6.77.

For `O=C(Nc1nn[nH]n1)c1ccc(CN(C(=O)Nc2ccc(OC(F)(F)F)cc2)C2CCC(C3CC3)CC2)cc1` (stereo not shown) [Example 604, 4-[1-(4-Cyclopropylcyclohexyl)-3-(4-trifluoromethoxyphenyl)ureidomethyl]-N-(2H-tetrazol-5-yl)benzamide], the negative-log IC50 (pIC50) is 6.65.

Take `N#Cc1cc(NC(=O)N(Cc2ccc(C(=O)Nc3nn[nH]n3)cc2)c2ccc(C3CCCCC3)cc2)cc(C(F)(F)F)c1` [Example 359, 4-[3-(3-Cyano-5-trifluoromethylphenyl)-1-(4-cyclohexylphenyl)ureidomethyl]-N-(2H-tetrazol-5-yl)benzamide]: the pIC50 was 7.80.

For `O=C(Nc1nn[nH]n1)c1ccc(CN(C(=O)c2cccc(C(F)(F)F)c2)c2ccc(C3CCCCC3)cc2)cc1` [Example 510, 4-{[(4-Cyclohexylphenyl)-(3-trifluoromethylbenzoyl)amino]methyl}-N-(2H-tetrazol-5-yl)benzamide], the pIC50 was 5.96.

Consider `CC(C)(C)c1ccc(N(Cc2ccc(C(=O)Nc3nn[nH]n3)cc2)C(=O)Oc2ccc(S(C)(=O)=O)cc2)cc1` [Example 624], for which the negative logarithm of the IC50 (pIC50) is 5.70.

For the compound `CCCCOC(=O)c1ccc(NC(=O)N(Cc2ccc(C(=O)NCCC(=O)O)cc2)C2CCC(C(C)(C)C)CC2)cc1` (stereo not shown) [Example 61, 4-{3-(4-tert-Butylcyclohexyl)-3-[4-(2-carboxyethylcarbamoyl)benzyl]ureido}benzoic acid butyl ester], the pIC50 is 7.32.

Regarding `CC(C)(C)C1CCC(N(Cc2ccc(C(=O)NCCC(=O)O)cc2)C(=O)Nc2ccc(SC(F)(F)F)cc2)CC1` (stereo not shown) [Example 58, 3-{4-[1-(4-tert-Butylcyclohexyl)-3-(4-trifluoromethylsulfanylphenyl)ureidomethyl]benzoylamino}propionic acid], the pIC50 was 6.86.

As to `CCCCOC(=O)c1ccc(NC(=O)N(Cc2ccc(C(=O)NCCC(=O)O)cc2)CC(c2ccccc2)c2ccccc2)cc1` [Example 54, 4-[3-[4-(2-Carboxyethylcarbamoyl)benzyl]-3-(2,2-diphenylethyl)ureido]benzoic acid butyl ester], the pIC50 was 6.47.

As for `O=C(Nc1nn[nH]n1)c1ccc(CN(C(=O)Nc2ccc(Cl)c(C(F)(F)F)c2)c2ccc(OC(F)(F)F)cc2)cc1` [Example 284, 4-[3-(4-Chloro-3-trifluoromethylphenyl)-1-(4-trifluoromethoxyphenyl)ureidomethyl]-N-(2H-tetrazol-5-yl)benzamide], the pIC50 is 7.27.

On to `CS(=O)(=O)c1cccc(NC(=O)N(Cc2ccc(C(=O)Nc3nn[nH]n3)cc2)c2ccc(OC(F)(F)F)cc2)c1` [Example 450, 4-[3-(3-Methylsulfonylphenyl)-1-(4-trifluoromethoxyphenyl)ureidomethyl]-N-(2H-tetrazol-5-yl)benzamide], for which the pIC50 is 5.75.

Regarding `O=C(O)CCNC(=O)c1ccc(CN(C(=O)Nc2cc(Br)cc(C(F)(F)F)c2)[C@H]2CC[C@H](C3CCCCC3)CC2)cc1` [Example 393, 3-{4-[1-(trans-4-Cyclohexylcyclohexyl)-3-(3-bromo-5-trifluoromethylphenyl)ureidomethyl]benzoylamino}propionic acid], the pIC50 was 7.77.
